Consider one molecule from patent US11253524B2 (Gilead Sciences, Inc., priority 2018, dated 2022).

Series [1] has as its system cryopreserved hepatocytes. The series can be described thus: Metabolites of [14C]BIC in cryopreserved hepatocytes, monkey. It is filed as in vitro ADME. The conditions noted are these: Cynomolgus Monkey hepatocytes, 4 hours, [14C]BIC 20 μM. The text has this: Metabolic pathways included hydroxylation (3 variants), N-dealkylation, and direct glucuronidation. All human metabolites were also observed in nonclinical species. Using the hepatocyte system where the full range of hepatic metabolic enzymes are represented, it appeared that the metabolism of BIC was extensive in monkey and dog but lower in rat and human.

Series [2] in a line: In vivo BIC metabolism, plasma profile after oral [14C]BIC, mouse. The conditions noted are these: transgenic mice, 0 to 48 hours post dose, ND = not detected. An excerpt: Metabolic pathways included hydroxylation, oxidative defluorination, direct glucuronidation, and oxidation followed by phase II conjugation. In the monkey, BIC was metabolized through the oxidative pathways to a greater extent compared to rat and human.

SMILES strings stand for the structures.

Take `O=C(NCc1c(F)cc(F)cc1F)c1cn2c(c(O)c1=O)C(=O)N1[C@H]3CC[C@H](C3)O[C@@H]1C2` [BIC, bictegravir, reference compound]: the “Fraction of Radiochromatogram (%)” value in series [1] came out at 52.4%. The “% of Total Radioactivity in AUC Pooled Plasma” value in series [2] is given as 95.5%.
